Data as given in the supplement of paper PMC10307832.

Legend:
Assay in all cases: relative viability (nuclei count vs DMSO), 5 days (fraction); higher = more cells survive
[1] = compound: CC1=C(C(=O)N2C=CSC2=N1)CCN3CCC(=C(C4=CC=CC=C4)C5=CC=C(C=C5)F)CC3 + NC(=O)Nc1cc(-c2cccc(F)c2)sc1C(=O)N[C@H]1CCCNC1 [AZD7762] (partner 0.2 µM)
In short: (§1)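 Lung cancer cell lines in 1536-well plates got either a single drug or a fixed anchor-drug dose together with five library-drug doses (not always all listed) in √10 steps, by pin tool, on the day after seeding. Nuclei were counted after 5 days, and relative viability is the treated-to-vehicle ratio of nuclei counts. Values are medians of duplicate plates.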

[2] = compound: CC1=C(C(=O)N2C=CSC2=N1)CCN3CCC(=C(C4=CC=CC=C4)C5=CC=C(C=C5)F)CC3 + Cc1nc(NC(=O)N2CCC[C@H]2C(N)=O)sc1-c1ccnc(C(C)(C)C(F)(F)F)c1 [Alpelisib] (partner 2 µM)
In short: as §1

[3] = compound: CC1=C(C(=O)N2C=CSC2=N1)CCN3CCC(=C(C4=CC=CC=C4)C5=CC=C(C=C5)F)CC3 + N=C(N)NC(=N)NCCc1ccccc1 [Phenformin] (partner 250 µM)
In short: as §1

[4] = compound: CC1=C(C(=O)N2C=CSC2=N1)CCN3CCC(=C(C4=CC=CC=C4)C5=CC=C(C=C5)F)CC3 + CS(=O)(=O)N1CCN(Cc2cc3nc(-c4cccc5[nH]ncc45)nc(N4CCOCC4)c3s2)CC1 [Pictilisib] (partner 1 µM)
In short: as §1

Cell Line	relative viability ([1]; first compound 0.08 µM)	relative viability ([1]; first compound 0.253 µM)	relative viability ([1]; first compound 0.8 µM)	relative viability ([1]; first compound 2.53 µM)	relative viability ([1]; first compound 8 µM)	relative viability ([2]; first compound 0.08 µM)	relative viability ([2]; first compound 0.253 µM)	relative viability ([2]; first compound 0.8 µM)	relative viability ([2]; first compound 2.53 µM)	relative viability ([2]; first compound 8 µM)	relative viability ([3]; first compound 0.08 µM)	relative viability ([3]; first compound 0.253 µM)	relative viability ([3]; first compound 0.8 µM)	relative viability ([3]; first compound 2.53 µM)	relative viability ([3]; first compound 8 µM)	relative viability ([4]; first compound 0.08 µM)	relative viability ([4]; first compound 0.253 µM)	relative viability ([4]; first compound 0.8 µM)	relative viability ([4]; first compound 2.53 µM)	relative viability ([4]; first compound 8 µM)
NCI-H1395	0.384	0.457	0.391	0.419	0.383	1.09	1.33	1.05	0.958	1.11	0.511	0.432	0.435	0.453	0.432	0.772	0.641	0.531	0.572	0.629
NCI-H1437	1.25	1.32	1.21	1.14	1.04	–	1.01	1.09	1.21	0.729	0.303	0.362	0.334	0.288	0.308	–	0.446	0.388	0.406	0.485
NCI-H1651	0.438	0.467	0.472	0.467	0.304	1.19	0.972	1.03	0.88	0.785	0.341	0.321	0.352	0.304	0.283	0.621	0.676	0.51	0.684	0.495
NCI-H1666	0.787	0.819	0.847	0.946	0.673	0.969	1.02	0.902	1.06	0.794	0.531	0.609	0.581	0.591	0.527	0.393	0.434	0.381	0.461	0.431
NCI-H1734	0.545	0.487	0.475	0.549	0.368	0.727	0.648	0.718	0.713	0.422	0.419	0.378	0.371	0.405	0.322	0.476	0.468	0.485	0.504	0.331
NCI-H1755	0.465	0.446	0.434	0.508	0.418	0.807	0.856	0.994	1.07	0.69	0.681	0.659	0.578	0.66	0.565	0.387	0.482	0.42	0.423	0.37
NCI-H1792	0.649	0.655	0.62	0.636	0.386	0.679	0.6	0.722	0.611	0.545	–	0.257	0.211	0.33	0.254	0.241	0.257	0.251	0.232	0.308
NCI-H1793	0.457	0.408	0.597	0.381	0.378	0.642	0.654	0.663	0.886	0.553	0.301	0.379	0.404	0.402	0.241	0.368	0.283	0.249	0.341	0.23
NCI-H1915	0.714	0.802	0.662	0.75	0.518	1.1	1.11	1.07	1.06	0.782	0.376	0.377	0.365	0.363	0.317	1.21	1.01	0.969	1.04	0.835
NCI-H1944	0.482	0.491	0.461	0.469	0.43	0.917	0.815	0.842	0.865	0.777	0.195	0.207	0.229	0.188	0.182	0.369	0.336	0.343	0.333	0.37
NCI-H1975	0.658	0.76	0.769	0.738	0.618	0.674	0.616	0.656	0.667	0.451	0.393	0.425	0.397	0.441	0.381	0.337	0.296	0.271	0.291	0.273
NCI-H1993	0.501	0.632	0.726	0.73	0.63	0.683	–	0.694	0.699	0.669	0.505	0.411	0.51	0.568	0.536	0.755	–	0.766	0.727	0.73
NCI-H2085	1.06	1.29	0.92	1.03	0.89	0.869	0.909	0.928	0.943	0.773	0.769	0.699	0.661	0.762	0.591	0.449	0.462	0.45	0.442	0.409
NCI-H2087	1.21	1.36	1.58	1.24	0.506	0.999	1.1	1.06	1.24	0.763	0.333	0.434	0.529	0.585	0.323	0.769	0.868	0.835	0.997	0.554
NCI-H2126	1.07	0.961	1.03	1.04	0.705	0.764	0.766	0.742	0.816	0.785	0.518	0.541	0.525	0.555	0.517	0.493	0.509	0.477	0.516	0.579
NCI-H2170	0.696	0.884	0.932	0.76	0.462	0.753	0.771	0.844	0.836	0.76	0.42	0.42	0.37	0.417	0.39	0.295	0.287	0.256	0.304	0.338
